Measured values as given in PubChem BioAssay AID1259407 (Chemical Carcinogenesis Research Information System (CCRIS), 2018).
Calls of active or inactive are those of the source. No rule for the calls is given here.

Test system: CCRIS mutagenicity, Ames/micronucleus/aberration tests
Assay: CCRIS mutagenicity studies
[1] = Test System: AMES SALMONELLA TYPHIMURIUM, Strain/Indicator: TA98, Metabolic Activation: NONE, Method: PREINCUBATION
[2] = Test System: AMES SALMONELLA TYPHIMURIUM, Strain/Indicator: TA98, Metabolic Activation: NONE, Method: STANDARD PLATE
[3] = Test System: AMES SALMONELLA TYPHIMURIUM, Strain/Indicator: TA100, Metabolic Activation: NONE, Method: PREINCUBATION

## O=[N+]([O-])c1cccc(Cl)c1F
End Point: IN VITRO CHROMOSOMAL ABERRATIONS, Test System: CHL CELLS, Metabolic Activation: RAT, LIVER, S-9, SODIUM PHENOBARBITAL AND 5,6-BENZOFLAVONE
  mutagenic call: active; positive (structural changes)

## CC[C@]1(O)CC2CN(CCc3c([nH]c4ccccc34)[C@@](C(=O)OC)(c3cc4c(cc3OC)N(C=O)[C@H]3[C@@](O)(C(=O)OC)[C@H](OC(C)=O)[C@]5(CC)C=CCN6CC[C@]43[C@@H]65)C2)C1 (some centres undefined)
End Point: In vitro micronucleus, Test System: Human lymphoblastoid TK6 cells, Metabolic Activation: None
  mutagenic call: active; positive (p<0.001)
End Point: In vivo micronucleus, Test System: Peripheral blood lymphocytes, Species: Human, Strain/Sex: Workers (6 males and 9 females) and matched controls, Route: Occupational
  mutagenic call: active; positive, both mean micronuclei rate and mean micronucleated cells rate signific
[1]
  mutagenic call: inactive; negative
[2]
  mutagenic call: inactive; negative
Test System: AMES SALMONELLA TYPHIMURIUM, Strain/Indicator: TA98, Metabolic Activation: S-9, Method: PREINCUBATION
  mutagenic call: inactive; negative
Test System: AMES SALMONELLA TYPHIMURIUM, Strain/Indicator: TA98, Metabolic Activation: S-9, Method: STANDARD PLATE
  mutagenic call: inactive; negative
[3]
  mutagenic call: inactive; negative
Test System: AMES SALMONELLA TYPHIMURIUM, Strain/Indicator: TA100, Metabolic Activation: NONE, Method: STANDARD PLATE
  mutagenic call: inactive; negative
Test System: AMES SALMONELLA TYPHIMURIUM, Strain/Indicator: TA100, Metabolic Activation: S-9, Method: PREINCUBATION
  mutagenic call: inactive; negative
Test System: AMES SALMONELLA TYPHIMURIUM, Strain/Indicator: TA100, Metabolic Activation: S-9, Method: STANDARD PLATE
  mutagenic call: inactive; negative
Test System: AMES SALMONELLA TYPHIMURIUM, Strain/Indicator: TA1537, Metabolic Activation: S-9, Method: STANDARD PLATE
  mutagenic call: inactive; negative
Test System: CHINESE HAMSTER V-79, Strain/Indicator: V-79 (HGPRT)/6-THIOGUANINE, Metabolic Activation: NONE
  mutagenic call: inactive; negative
Test System: CHINESE HAMSTER V-79, Strain/Indicator: V-79/6-THIOGUANINE, Metabolic Activation: NONE, Method: SUSPENSION/PLATE
  mutagenic call: inactive; negative
Test System: CHINESE HAMSTER V-79, Strain/Indicator: V-79/6-THIOGUANINE, Metabolic Activation: RAT, LIVER, HEPATOCYTES, Method: SUSPENSION/PLATE
  mutagenic call: inactive; negative
Test System: E. COLI, Strain/Indicator: WP2 (HCR), Metabolic Activation: NONE, Method: STANDARD PLATE
  mutagenic call: inactive; negative
Test System: E. COLI, Strain/Indicator: WP2 (HCR), Metabolic Activation: S-9, Method: STANDARD PLATE
  mutagenic call: inactive; negative
Test System: MOUSE LYMPHOMA, Strain/Indicator: L5178Y (TK+/TK-), Metabolic Activation: NONE
  mutagenic call: active; positive

## N#CCBr
Test System: AMES SALMONELLA TYPHIMURIUM, Strain/Indicator: TA98, Metabolic Activation: HAMSTER, LIVER, S-9, AROCLOR 1254 (10%), Method: PREINCUBATION
  mutagenic call: inactive; negative
[1]
  mutagenic call: inactive; negative
Test System: AMES SALMONELLA TYPHIMURIUM, Strain/Indicator: TA98, Metabolic Activation: RAT, LIVER, S-9, AROCLOR 1254 (10%), Method: PREINCUBATION
  mutagenic call: inactive; negative
Test System: AMES SALMONELLA TYPHIMURIUM, Strain/Indicator: TA100, Metabolic Activation: HAMSTER, LIVER, S-9, AROCLOR 1254 (10%), Method: PREINCUBATION
  mutagenic call: inactive; negative
Test System: AMES SALMONELLA TYPHIMURIUM, Strain/Indicator: TA100, Metabolic Activation: NONE, Method: FLUCTUATION TEST
  mutagenic call: inactive; negative
[3]
  mutagenic call: inactive; negative
Test System: AMES SALMONELLA TYPHIMURIUM, Strain/Indicator: TA100, Metabolic Activation: RAT, LIVER, S-9, AROCLOR 1254 (10%), Method: PREINCUBATION
  mutagenic call: inactive; negative
Test System: AMES SALMONELLA TYPHIMURIUM, Strain/Indicator: TA100, Metabolic Activation: RAT, LIVER, S-9, AROCLOR 1254, Method: FLUCTUATION TEST
  mutagenic call: active; positive
Test System: AMES SALMONELLA TYPHIMURIUM, Strain/Indicator: TA1535, Metabolic Activation: HAMSTER, LIVER, S-9, AROCLOR 1254 (10%), Method: PREINCUBATION
  mutagenic call: inactive; negative
Test System: AMES SALMONELLA TYPHIMURIUM, Strain/Indicator: TA1535, Metabolic Activation: NONE, Method: PREINCUBATION
  mutagenic call: inactive; negative
Test System: AMES SALMONELLA TYPHIMURIUM, Strain/Indicator: TA1535, Metabolic Activation: RAT, LIVER, S-9, AROCLOR 1254 (10%), Method: PREINCUBATION
  mutagenic call: inactive; negative
Test System: AMES SALMONELLA TYPHIMURIUM, Strain/Indicator: TA1537, Metabolic Activation: HAMSTER, LIVER, S-9, AROCLOR 1254 (10%), Method: PREINCUBATION
  mutagenic call: inactive; negative
Test System: AMES SALMONELLA TYPHIMURIUM, Strain/Indicator: TA1537, Metabolic Activation: NONE, Method: PREINCUBATION
  mutagenic call: inactive; negative
Test System: AMES SALMONELLA TYPHIMURIUM, Strain/Indicator: TA1537, Metabolic Activation: RAT, LIVER, S-9, AROCLOR 1254 (10%), Method: PREINCUBATION
  mutagenic call: inactive; negative

## Cn1c(N=[N+]=[N-])nc2ccc3ncccc3c21
Test System: AMES SALMONELLA TYPHIMURIUM, Strain/Indicator: TA98(1,8-DNP6), Metabolic Activation: NONE, Method: STANDARD PLATE
  mutagenic call: active; positive
[2]
  mutagenic call: active; positive
